Our source for the EC50 values is US20230219962A1, “PYRAZOLO[4,3-d]PYRIMIDINE DERIVATIVES AND METHODS OF USE THEREOF FOR THE TREATMENT OF CELLULAR PROLIFERATIVE DISORDERS” (Merck Sharp & Dohme LLC, priority 2020, published 2023).

Experiment [1] deals with T1, hTLR8 (Homo sapiens, UniProt Q9NR97).
T1 construct: host or cells: HEK-Blue hTLR8 cells (HEK293-derived, own knowledge)
T1 sequence (Q9NR97 27-1041): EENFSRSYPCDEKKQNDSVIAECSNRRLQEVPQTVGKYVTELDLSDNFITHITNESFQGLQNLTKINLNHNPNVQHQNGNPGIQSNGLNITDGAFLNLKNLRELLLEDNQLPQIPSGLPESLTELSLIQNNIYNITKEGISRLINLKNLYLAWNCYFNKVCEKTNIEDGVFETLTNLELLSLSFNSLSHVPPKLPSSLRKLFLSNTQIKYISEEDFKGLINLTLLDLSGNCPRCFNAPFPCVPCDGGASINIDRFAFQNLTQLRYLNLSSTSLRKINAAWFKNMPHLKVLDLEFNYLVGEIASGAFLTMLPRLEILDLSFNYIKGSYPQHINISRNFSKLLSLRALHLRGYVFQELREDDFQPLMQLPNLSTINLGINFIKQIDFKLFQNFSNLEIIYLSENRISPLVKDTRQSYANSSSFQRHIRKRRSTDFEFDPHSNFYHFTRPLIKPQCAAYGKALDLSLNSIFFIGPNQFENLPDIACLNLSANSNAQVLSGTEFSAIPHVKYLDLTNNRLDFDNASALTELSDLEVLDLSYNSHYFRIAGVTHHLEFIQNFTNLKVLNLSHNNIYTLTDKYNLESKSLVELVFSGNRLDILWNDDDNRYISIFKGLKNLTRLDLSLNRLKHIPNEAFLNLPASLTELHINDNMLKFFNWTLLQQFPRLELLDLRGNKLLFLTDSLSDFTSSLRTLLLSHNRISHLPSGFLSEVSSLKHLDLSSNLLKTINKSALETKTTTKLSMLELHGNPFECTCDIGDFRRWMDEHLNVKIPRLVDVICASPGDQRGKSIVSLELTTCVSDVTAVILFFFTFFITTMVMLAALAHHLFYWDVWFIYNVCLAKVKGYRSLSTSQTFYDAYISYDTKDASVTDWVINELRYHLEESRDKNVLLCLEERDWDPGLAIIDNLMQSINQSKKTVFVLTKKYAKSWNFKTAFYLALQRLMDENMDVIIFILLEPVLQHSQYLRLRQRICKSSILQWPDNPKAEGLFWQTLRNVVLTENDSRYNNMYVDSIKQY
Nature of the experiment: Human TLR8 Reporter Assay. The experiment is classed as cell-based. The settings on record: HEK-Blue hTLR8 cells, 16 hours, normalized to tl8-506 (1 μM) and DMSO. The procedure:
(§1) HEK-Blue™ hTLR8 cells (Invivogen, San Diego, Calif.) were maintained at 37° C./5% CO2/90% relative humidity in Dulbecco's Modified Eagle's Medium with 10% fetal bovine serum, 100 units/mL penicillin, 100 μg/mL streptomycin, 100 μg/mL normocin, 10 μg/mL blasticidin, and 100 μg/mL zeocin. HEK-Blue™ hTLR8 cells were maintained at 10-90% confluence and used before passage 20. For this assay, test compounds were dissolved in DMSO, and 10-point serial 3-fold dilution series in DMSO were prepared in Echo Qualified 384-well Polypropylene Microplates (Labcyte, San Jose, Calif.). Assay plates (384-well flat, clear bottom, black polystyrene TC-treated microtiter plates; Corning, Corning, N.Y.) were prepared by dispensing 150 nL of test compounds, high control (tl8-506; Invivogen, San Diego, Calif.), and low control (DMSO) by ECHO acoustic dispenser (Labcyte, San Jose Calif.) followed by addition of 5 μL of HEK-Blue™ Detection assay media (Invivogen, San Diego, Calif.). HEK-Blue™ hTLR8 cells in HEK-Blue™ Detection assay media (20,000 cells per well in 45 μL of media) were added to the assay plate and incubated for 16 hours at 37° C./5% CO2/90% relative humidity. For detection, assay plates were removed from the incubator, allowed to cool to ambient temperature, centrifuged at 200×g for 1 minutes, and read with an EnSpire Multimode Plate Reader (Perkin Elmer, Waltham, Mass.) for absorbance at 620 nm. Test compound effects were normalized to the window defined by the controls, tl8-506 (1 μM), and DMSO. Calculated % effects were fit using a 4-parameter algorithm, and EC50 was reported.

Experiment [2] deals with T2, hTLR7 (Homo sapiens, UniProt Q9NYK1).
T2 construct: host or cells: HEK-Blue hTLR7 cells (HEK293-derived, own knowledge)
T2 sequence (Q9NYK1 27-1049): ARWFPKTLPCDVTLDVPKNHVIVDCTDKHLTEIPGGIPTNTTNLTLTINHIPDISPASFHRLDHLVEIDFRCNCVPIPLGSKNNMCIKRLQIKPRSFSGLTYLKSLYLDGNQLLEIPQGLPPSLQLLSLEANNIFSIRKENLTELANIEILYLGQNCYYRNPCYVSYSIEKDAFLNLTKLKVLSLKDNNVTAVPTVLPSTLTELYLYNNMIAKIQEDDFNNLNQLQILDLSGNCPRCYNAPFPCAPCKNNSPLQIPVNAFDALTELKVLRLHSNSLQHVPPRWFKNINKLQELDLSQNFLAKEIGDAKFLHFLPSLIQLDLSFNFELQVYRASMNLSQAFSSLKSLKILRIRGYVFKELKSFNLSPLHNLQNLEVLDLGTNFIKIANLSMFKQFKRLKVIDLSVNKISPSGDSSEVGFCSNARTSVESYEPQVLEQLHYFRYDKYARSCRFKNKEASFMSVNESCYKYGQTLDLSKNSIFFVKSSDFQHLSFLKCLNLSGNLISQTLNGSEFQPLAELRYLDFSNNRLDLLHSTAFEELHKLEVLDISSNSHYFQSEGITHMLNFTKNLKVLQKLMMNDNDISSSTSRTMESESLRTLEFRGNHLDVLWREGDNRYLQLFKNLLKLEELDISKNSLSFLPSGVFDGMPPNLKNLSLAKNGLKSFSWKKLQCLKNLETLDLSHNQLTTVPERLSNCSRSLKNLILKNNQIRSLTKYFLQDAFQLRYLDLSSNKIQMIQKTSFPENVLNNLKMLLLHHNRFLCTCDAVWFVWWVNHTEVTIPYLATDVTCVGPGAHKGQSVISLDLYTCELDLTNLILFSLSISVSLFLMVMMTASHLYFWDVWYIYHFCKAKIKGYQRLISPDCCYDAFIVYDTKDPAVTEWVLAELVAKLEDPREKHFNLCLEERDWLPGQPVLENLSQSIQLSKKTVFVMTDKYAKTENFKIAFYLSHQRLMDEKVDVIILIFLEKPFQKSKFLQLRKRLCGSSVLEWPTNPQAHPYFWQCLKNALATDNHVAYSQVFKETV
Nature of the experiment: Human TLR7 Reporter Assay. The class given is cell-based. The following applies: HEK-Blue hTLR7 cells, 16 hours, normalized to CL097 (6 μM) and DMSO. The procedure: as §1, with “hTLR7” for “hTLR8”, “(CL097;” for “(tl8-506;”, “CL097 (6” for “tl8-506 (1”
Background: In a reporter assay the amount or activity of a reporter protein is the signal.

As a reminder, the EC50 is the concentration needed to bring the measured effect to its halfway point. Read a high EC50 as lower potency in that assay. Turning to `CCCCNc1nc(N)nc2cn(Cc3ccccc3OC)nc12` [Compound 1], the concentration giving a half-maximal response (EC50) is 4.9 µM in experiment [1] and 0.665 µM in experiment [2].
As for `CCCCNc1nc(N)nc2cn(Cc3ccccc3)nc12` [Compound 2], the results for the concentration giving a half-maximal response (EC50) in experiment [1] and in experiment [2] were 4.21 µM and 1.09 µM, respectively.
Turning to `CCCCNc1nc(N)nc2cn(Cc3ccccc3C)nc12` [Compound 3], the concentration for a half-maximal effect (EC50) in experiment [1] was over 29.9 µM; in experiment [2] it was 1.22 µM.
The like results for `CCCCNc1nc(N)nc2cn(Cc3ccccc3Cl)nc12` [Compound 4] were, in that order, 6.54 µM and 0.578 µM.
Turning to `CCCCNc1nc(N)nc2cn(Cc3c(OC)cccc3OC)nc12` [Compound 5], the concentration for a half-maximal effect (EC50) came out at 0.328 µM in experiment [1] and 0.0727 µM in experiment [2].
For the molecule `CCCCNc1nc(N)nc2cn(CC3CCCCC3)nc12` [Compound 7], the values for the EC50 in experiment [1] and in experiment [2] were over 29.9 µM and 2.52 µM, respectively.
In the case of `CCCCNc1nc(N)nc2cn(Cc3ncccc3OC)nc12` [Compound 8], the figures for the EC50 in experiment [1] and in experiment [2] were 0.546 µM and 0.0509 µM, respectively.
Regarding `CCCCNc1nc(N)nc2cn(CCCCCCCCN)nc12` [Compound 13], the 50% effective concentration (EC50) in experiment [1] was determined as 26.1 µM; in experiment [2], 3.04 µM.
For the molecule `CCCCC(CCO)Nc1nc(N)nc2cn(Cc3ccccc3OC)nc12` (centres unmarked) [Compound 16], the figures for the half-maximal effective concentration (EC50) in experiment [1] and in experiment [2] were over 9.98 µM and 0.0862 µM, respectively.
Take `CCCCC(CCO)Nc1nc(N)nc2cn(Cc3ccccc3OC)nc12` (centres unmarked) [Compound 17]: the EC50 in experiment [1] was over 29.9 µM; in experiment [2], 0.398 µM.
Turning to `CCCCC(CCC)Nc1nc(N)nc2cn(Cc3ccccc3OC)nc12` (centres unmarked) [Compound 18], the EC50 was over 29.9 µM in experiment [1] and 0.315 µM in experiment [2].
For `CCCCC(CCC)Nc1nc(N)nc2cn(Cc3ccccc3OC)nc12` (centres unmarked) [Compound 19], the EC50 in experiment [1] is over 29.9 µM; in experiment [2] it was 0.435 µM.
On to `COc1ccccc1Cn1cc2nc(N)nc(N3CCC(CO)C3)c2n1` (centres unmarked) [Compound 24], for which the EC50 in experiment [1] was over 29.9 µM; in experiment [2], 2.45 µM.
As to `CCCNc1nc(N)nc2cn(Cc3c(OC)cccc3OC)nc12` [Compound 26], the results for the EC50 in experiment [1] and in experiment [2] were 1.89 µM and 0.464 µM, respectively.
In the same order, the values of `COc1cccc(OC)c1Cn1cc2nc(N)nc(NC(C)C)c2n1` [Compound 27] are 4.38 µM and 1.12 µM.
The like results for `CCCCCNc1nc(N)nc2cn(Cc3c(OC)cccc3OC)nc12` [Compound 28] were, in that order, 1.01 µM and 0.214 µM.
For `CCC[C@H](CO)Nc1nc(N)nc2cn(Cc3ccccc3OC)nc12` [Compound 29], the 50% effective concentration (EC50) worked out at 28.2 µM in experiment [1] and 2.77 µM in experiment [2].
In the same order, the values of `CCCCNc1nc(N)nc2cn(CCc3ccccc3OC)nc12` [Compound 36] are over 29.9 µM and 3.1 µM.
The like results for `CCCCNc1nc(N)nc2cn(Cc3ccccc3OC(C)C)nc12` [Compound 37] were, in that order, over 9.98 µM and 1.03 µM.
With `CCCCNc1nc(N)nc2cn(Cc3ccc(OC)cc3)nc12` [Compound 38], the figures for the EC50 in experiment [1] and in experiment [2] were 1.69 µM and 0.263 µM, respectively.
The like results for `CCCCNc1nc(N)nc2cn(Cc3c(C)cccc3OC)nc12` [Compound 39] were, in that order, 0.748 µM and 0.239 µM.
For the molecule `CCCCNc1nc(N)nc2cn(Cc3c(OCC)cccc3OCC)nc12` [Compound 40], the figures for the EC50 in experiment [1] and in experiment [2] were 0.813 µM and 0.125 µM, respectively.
On to `CCCCNc1nc(N)nc2cn(Cc3c(F)cccc3F)nc12` [Compound 41], for which the EC50 in experiment [1] is 0.71 µM; in experiment [2], 0.0686 µM.
On to `CCCCNc1nc(N)nc2cn(CCCCN)nc12` [Compound 42], for which the EC50 in experiment [1] was 2.98 µM; in experiment [2], over 29.9 µM.
The like results for `CNc1nc(N)nc2cn(Cc3c(OC)cccc3OC)nc12` [Compound 43] were, in that order, over 9.98 µM and 1.37 µM.
Consider `CCNc1nc(N)nc2cn(Cc3c(OC)cccc3OC)nc12` [Compound 44], for which the concentration for a half-maximal effect (EC50) was found to be 3.93 µM in experiment [1] and 0.858 µM in experiment [2].
The like results for `COCCNc1nc(N)nc2cn(Cc3c(OC)cccc3OC)nc12` [Compound 46] were, in that order, 1.08 µM and 0.353 µM.
On to `COc1cccc(OC)c1Cn1cc2nc(N)nc(NCCCO)c2n1` [Compound 47], for which the concentration for a half-maximal effect (EC50) in experiment [1] was over 29.9 µM; in experiment [2], 8.59 µM.
In the case of `COc1cccc(OC)c1Cn1cc2nc(N)nc(NCC(C)O)c2n1` (centres unmarked) [Compound 48], the half-maximal effective concentration (EC50) in experiment [1] was over 29.9 µM; in experiment [2], 7.72 µM.
The molecule `CCCCNc1nc(N)nc2cn(Cc3c(OC)ccc(CNC(=O)C4CCC(CN5C(=O)C=CC5=O)CC4)c3OC)nc12` (centres unmarked) [Compound 81] had a concentration giving a half-maximal response (EC50) in experiment [2] of over 29.9 µM.
